# Measured values: PubChem BioAssay AID1845194 (Molecular Pharmacology Branch, DTP, NCI, 2023)
# pIC50: −log10 of the molar value.
# System: 287954-098-R-J1 tumor spheroid viability
# Assay: Anticancer human tumor 287954-098-R-J1 patient-derived Ewing sarcoma cell line growth inhibition
# Settings: spheroids with HUVEC and MSC; for pIC50: curve of first compound; for viability, T/C: stronger effect = lower value
# In short: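 Complex spheroids of malignant cells with endothelial cells and mesenchymal stem cells; agents alone or combined, from near clinical Cmax (or 10 microM if unknown) down in half-log steps, 0.25% DMSO final.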
# [1] = second compound 30 pM, first compound 0.0316 µM
# [2] = second compound 30 pM, first compound 0.1 µM
# [3] = second compound 30 pM, first compound 0.316 µM
# [4] = second compound 30 pM, first compound 1 µM
# [5] = second compound 30 pM, first compound 3.16 µM
# [6] = second compound 30 pM, first compound 10 µM
# [7] = second compound 94.9 pM, first compound 0.0316 µM
# [8] = second compound 94.9 pM, first compound 0.1 µM
# [9] = second compound 94.9 pM, first compound 0.316 µM
# [10] = second compound 94.9 pM, first compound 1 µM
# [11] = second compound 94.9 pM, first compound 3.16 µM
# [12] = second compound 94.9 pM, first compound 10 µM
# [13] = second compound 0.0003 µM, first compound 0.0316 µM
# [14] = second compound 0.0003 µM, first compound 0.1 µM
# [15] = second compound 0.0003 µM, first compound 0.316 µM
# [16] = second compound 0.0003 µM, first compound 1 µM
# [17] = second compound 0.0003 µM, first compound 3.16 µM
# [18] = second compound 0.0003 µM, first compound 10 µM
# [19] = second compound 0.000949 µM, first compound 0.0316 µM
# [20] = second compound 0.000949 µM, first compound 0.1 µM
# [21] = second compound 0.000949 µM, first compound 0.316 µM
# [22] = second compound 0.000949 µM, first compound 1 µM
# [23] = second compound 0.000949 µM, first compound 3.16 µM
# [24] = second compound 0.000949 µM, first compound 10 µM
# [25] = second compound 0.003 µM, first compound 0.0316 µM
# [26] = second compound 0.003 µM, first compound 0.1 µM
# [27] = second compound 0.003 µM, first compound 0.316 µM
# [28] = second compound 0.003 µM, first compound 1 µM
# [29] = second compound 0.003 µM, first compound 3.16 µM
# [30] = second compound 0.003 µM, first compound 10 µM
# 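Further: spheroids exposed to compound for 7 days before viability readout.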
# 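Wherever viability, T/C is given: luminescent signal taken as surrogate of viable cell content; 100% = DMSO vehicle control viability and lower means growth inhibition.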
compound,measurement,setting,value
COc1cc(C)[nH]c(=O)c1CN1CCc2c(Cl)cc(C(OC)C3COC3)c(Cl)c2C1=O (stereo not given) + COc1cc2c(cc1O)CCNC21CSC2c3c(OC(C)=O)c(C)c4c(c3C(COC1=O)N1C(O)C3Cc5cc(C)c(OC)c(O)c5C(C21)N3C)OCO4,pIC50,second compound 30 pM,< 5.00
same,pIC50,second compound 94.9 pM,< 5.00
same,pIC50,second compound 0.0003 µM,< 5.00
same,pIC50,second compound 0.000949 µM,> 7.50
same,pIC50,second compound 0.003 µM,> 7.50
same,"viability, T/C",[1],96.5%
same,"viability, T/C",[2],94.2%
same,"viability, T/C",[3],87.3%
same,"viability, T/C",[4],92.8%
same,"viability, T/C",[5],104%
same,"viability, T/C",[6],89.9%
same,"viability, T/C",[7],108%
same,"viability, T/C",[8],101%
same,"viability, T/C",[9],94.5%
same,"viability, T/C",[10],94.1%
same,"viability, T/C",[11],91.3%
same,"viability, T/C",[12],94.1%
same,"viability, T/C",[13],104%
same,"viability, T/C",[14],102%
same,"viability, T/C",[15],92.1%
same,"viability, T/C",[16],95.5%
same,"viability, T/C",[17],90.9%
same,"viability, T/C",[18],87.9%
same,"viability, T/C",[19],0.52%
same,"viability, T/C",[20],0.35%
same,"viability, T/C",[21],0.34%
same,"viability, T/C",[22],0.36%
same,"viability, T/C",[23],0.25%
same,"viability, T/C",[24],0.33%
same,"viability, T/C",[25],0.25%
same,"viability, T/C",[26],0.27%
same,"viability, T/C",[27],0.22%
same,"viability, T/C",[28],0.16%
same,"viability, T/C",[29],0.16%
same,"viability, T/C",[30],0.25%
CC(C)n1c(=O)n(C)c2cnc3cc(F)c(-c4ccc(OCCCN5CCCCC5)nc4)cc3c21 + COc1cc2c(cc1O)CCNC21CSC2c3c(OC(C)=O)c(C)c4c(c3C(COC1=O)N1C(O)C3Cc5cc(C)c(OC)c(O)c5C(C21)N3C)OCO4,pIC50,second compound 30 pM,5.34
same,pIC50,second compound 94.9 pM,> 7.50
same,pIC50,second compound 0.0003 µM,> 7.50
same,pIC50,second compound 0.000949 µM,> 7.50
same,pIC50,second compound 0.003 µM,> 7.50
same,"viability, T/C",[1],44.4%
same,"viability, T/C",[2],84.8%
same,"viability, T/C",[3],62.4%
same,"viability, T/C",[4],85.3%
same,"viability, T/C",[5],81.3%
same,"viability, T/C",[6],2.07%
same,"viability, T/C",[7],14.9%
same,"viability, T/C",[8],14.4%
same,"viability, T/C",[9],8.68%
same,"viability, T/C",[10],14.2%
same,"viability, T/C",[11],8.71%
same,"viability, T/C",[12],0.47%
same,"viability, T/C",[13],1.47%
same,"viability, T/C",[14],1.47%
same,"viability, T/C",[15],1.52%
same,"viability, T/C",[16],1.56%
same,"viability, T/C",[17],1.71%
same,"viability, T/C",[18],0.41%
same,"viability, T/C",[19],0.31%
same,"viability, T/C",[20],0.27%
same,"viability, T/C",[21],0.36%
same,"viability, T/C",[22],0.6%
same,"viability, T/C",[23],0.33%
same,"viability, T/C",[24],0.36%
same,"viability, T/C",[25],0.18%
same,"viability, T/C",[26],0.2%
same,"viability, T/C",[27],0.18%
same,"viability, T/C",[28],0.23%
same,"viability, T/C",[29],0.25%
same,"viability, T/C",[30],0.4%
CNCc1ccc(-c2cc(-c3nc(-c4ccc(S(=O)(=O)C(C)C)cc4)cnc3N)on2)cc1 + Cn1nnc2c(C(N)=O)ncn2c1=O,pIC50,second compound 1 µM,6.26
same,pIC50,second compound 3.16 µM,6.26
same,pIC50,second compound 10 µM,6.26
same,pIC50,second compound 31.6 µM,6.40
same,pIC50,second compound 100 µM,6.77
same,"viability, T/C","second compound 1 µM, first compound 0.00949 µM",98.6%
same,"viability, T/C","second compound 1 µM, first compound 0.03 µM",103%
same,"viability, T/C","second compound 1 µM, first compound 0.0949 µM",110%
same,"viability, T/C","second compound 1 µM, first compound 0.3 µM",103%
same,"viability, T/C","second compound 1 µM, first compound 0.949 µM",0.19%
same,"viability, T/C","second compound 1 µM, first compound 3 µM",0.11%
same,"viability, T/C","second compound 3.16 µM, first compound 0.00949 µM",105%
same,"viability, T/C","second compound 3.16 µM, first compound 0.03 µM",106%
same,"viability, T/C","second compound 3.16 µM, first compound 0.0949 µM",113%
same,"viability, T/C","second compound 3.16 µM, first compound 0.3 µM",107%
same,"viability, T/C","second compound 3.16 µM, first compound 0.949 µM",0.19%
same,"viability, T/C","second compound 3.16 µM, first compound 3 µM",0.1%
same,"viability, T/C","second compound 10 µM, first compound 0.00949 µM",102%
same,"viability, T/C","second compound 10 µM, first compound 0.03 µM",110%
same,"viability, T/C","second compound 10 µM, first compound 0.0949 µM",106%
same,"viability, T/C","second compound 10 µM, first compound 0.3 µM",105%
same,"viability, T/C","second compound 10 µM, first compound 0.949 µM",0.16%
same,"viability, T/C","second compound 10 µM, first compound 3 µM",0.09%
same,"viability, T/C","second compound 31.6 µM, first compound 0.00949 µM",104%
same,"viability, T/C","second compound 31.6 µM, first compound 0.03 µM",106%
same,"viability, T/C","second compound 31.6 µM, first compound 0.0949 µM",121%
same,"viability, T/C","second compound 31.6 µM, first compound 0.3 µM",66.3%
same,"viability, T/C","second compound 31.6 µM, first compound 0.949 µM",0.13%
same,"viability, T/C","second compound 31.6 µM, first compound 3 µM",0.1%
same,"viability, T/C","second compound 100 µM, first compound 0.00949 µM",97.5%
same,"viability, T/C","second compound 100 µM, first compound 0.03 µM",100%
same,"viability, T/C","second compound 100 µM, first compound 0.0949 µM",103%
same,"viability, T/C","second compound 100 µM, first compound 0.3 µM",1.71%
same,"viability, T/C","second compound 100 µM, first compound 0.949 µM",0.14%
same,"viability, T/C","second compound 100 µM, first compound 3 µM",0.16%
